Tested on: sheet-shaped human skeletal myoblast cell culture
Experiment: Cell survival rate confirmation test: sheet-shaped cell culture kept refrigerated in preservative solution, PI staining, flow cytometry
Type: cell-based
Details: 2° C. to 8° C.
Experimental: The sheet-shaped cell cultures were prepared using skeletal myoblast cells (with fibroblast cells contained therein) prepared from a human skeletal muscle by a usual or known method. A cell mixture of human skeletal myoblast cells and human fibroblast cells suspended in a 20% human serum-containing DMEM/F12 medium (Thermo Fisher Scientific Inc.) was seeded at 3.7×10^6 cells/well on a temperature-responsive culture dish (UpCell® 12 well Multi-well, CellSeed Inc.), and was then subjected to the sheet-formation cultivation at 37° C. under 5% CO2 for 12 to 26 hours. After the sheet-formation cultivation, the medium was removed, 700 μL of HBSS (+) (Thermo Fisher Scientific Inc.) which was chilled to 4° C. was added, and then the resultant was left to stand for 10 minutes. Then, gentle pipetting was conducted such as to detach the sheet-shaped cell culture completely.
After the sheet-shaped cell culture was completely detached, HBSS (+) was removed, and a fresh supply of room-temperature HBSS (+) was added to conduct rinsing. Such a washing step was repeated four times.
The sheet-shaped cell culture left to stand under the refrigerated conditions in (1) above was put to measurement of cell survival rate. After the sheet-shaped cell culture left to stand in the preservative solution for a predetermined period was dissociated with a trypsin-like protease, the cells were dispensed into a FACS tube to be 3.5×10^5 cells, followed by centrifugation, and the supernatant was discarded. To the resultant was added 3 ml of 0.5% BAS-containing PBS solution, and, after rinsing the cells by vortex, centrifugation was conducted, the supernatant was removed, and 500 μL of a propidium iodide (PI, Becton Dickinson) prepared to a final concentration of 0.6 μg/mL by use of a 0.5% BSA-containing PBS solution was added and mixed. Immediately after the mixing, the mixture was put to reaction at room temperature under a light shielding condition for approximately five minutes. After the reaction, a 0.5% BSA-containing PBS solution was added, the cells were rinsed by vortex, followed by centrifugation, then the supernatant was removed, 500 μL of a 0.5% BSA-containing PBS solution was added, and the resultant was put to an analysis. The analysis was conducted using a flow cytometer (Becton Dickinson), and the proportion of PI-unstained cells contained in the whole cells admixed with PI was measured. […]
As a control, a DMEM medium (Thermo Fisher Scientific Inc.) was used.

Compound: CC1=NN(c2ccccc2)C(=O)C1 [edaravone, 3-methyl-1-phenyl-2-pyrazolin-5-one]
- cell survival rate (1 μM edaravone in physiological saline solution, five days): approximately 95%
- cell survival rate as compared to the case of no addition of edaravone (1 μM or 10 μM edaravone in physiological saline solution, five days): increased
- cell survival rate (10 μM edaravone in physiological saline solution, five days): approximately 97%
- lowering in the number of live cells from three days to seven days of preservation, compared to edaravone-nonadded HBSS (+) (100 μM edaravone in HBSS (+)): restrained
- cell survival rate as compared to HBSS (+) not admixed with edaravone (100 μM edaravone in HBSS (+), three days to seven days): higher cell survival rate

Compound: O=C1O[C@H]([C@@H](O)CO)C(O)=C1O [vitamin C, ascorbic acid]
- cell survival rate (0.2 mM vitamin C in physiological saline solution, three days): approximately 63%
- cell survival rate (2 mM vitamin C in physiological saline solution, three days): approximately 85%

Compound: tocopherol [vitamin E]
- cell survival rate (10 μM vitamin E in physiological saline solution, three days): approximately 65%
- cell survival rate (100 μM vitamin E in physiological saline solution, three days): approximately 65%

From patent US20190274300A1, “PRESERVATIVE SOLUTION FOR LIVE CELLS OR COMPOSITION CONTAINING LIVE CELLS” (TERUMO KABUSHIKI KAISHA, priority 2016, published 2019)
